Test system: CD1 female mouse brain lipidome
Assay: Brain-region lipid levels (HPLC/MS/MS lipidomics) 2 h after single i.p. 3 mg/kg CP 55,940 vs vehicle
Format: in vivo
Parameters: N-arachidonoyl phenylalanine level, Mean / N-stearoyl tryptophan level, Mean / N-stearoyl proline level, Mean / N-stearoyl leucine level, Mean / N-stearoyl phenylalanine level, Mean / N-stearoyl serine level, Mean / N-stearoyl methionine level, Mean: unit: moles per gram
Protocol: The Bloomington Institutional Animal Care and Use Committee of Indiana University reviewed and approved the animal procedures. Female mice from the CD1 strain were utilized to match our study examining THC’s effects on the brain lipidome ([Leishman et al., 2018]). Mice were given a single i.p. injection of either 3 mg/kg CP or 1:1:18 cremophor:ethanol:saline vehicle (please refer to the section “3 mg/kg CP Is Relevant for Synthetic Cannabinoid Abuse and Has Stronger Effects on the Female Mouse Brain Lipidome During Adolescence” for a justification of dose and use of female mice). Three different age groups were given injections: PND 35 and PND 50 adolescents, and adult mice (PND 113). At least eight mice in each age group received CP and at least eight received vehicle. Matching the THC study time course ([Leishman et al., 2018]), mice were sacrificed via rapid decapitation 2 h after injection. Brains were immediately removed and flash-frozen in liquid nitrogen, and then stored at -80°C until dissections were performed. Brains were dissected on an ice-cold dissection plate into the following regions: STR, HIPP, CER, THAL, CTX, HYP, MID, and STEM. These abbreviations for these brain areas will be used exclusively when discussing the results generated by these specific dissections. Each dissected area was immediately placed in liquid nitrogen and then stored at -80°C until used for lipid extraction.
Tissue extracts were performed as previously described ([Bradshaw et al., 2006]; [Stuart et al., 2013]; [Raboune et al., 2014]; [Leishman et al., 2016a],[b], [2017], [2018]). First, samples were shock frozen in liquid nitrogen, weighed, and transferred to a centrifuge tube. The mass of the largest sample was multiplied by 50 to determine how many milliliters of HPLC-grade methanol (Fisher, Fair Lawn, NJ, United States) to add. Then, samples were spiked with 500 pmol deuterium-labeled NAGly (d8NAGly; Cayman Chemical, Ann Arbor, MI, United States). Samples were placed on ice in darkness for 2 h then individually homogenized and centrifuged at 19,000 × g for 20 min at 20°C. Supernatants were diluted with HPLC water (purified in house) to make a solution of 75% water, 25% supernatant. Lipids were partially purified on C18 solid phase extraction columns (Agilent, Palo Alto, CA, United States). A series of four elutions with 1.5 mL of 60%, 75%, 85%, and 100% methanol were collected ([Stuart et al., 2013]; [Leishman et al., 2016a],[b], [2018]).
As previously described ([Bradshaw et al., 2006]; [Tan et al., 2006]; [Smoum et al., 2010]; [Stuart et al., 2013]; [Tortoriello et al., 2013]; [Raboune et al., 2014]; [Leishman et al., 2016a],[b], [2017], [2018]), samples were analyzed using an Applied Biosystems API 3000 triple quadrupole mass spectrometer with electrospray ionization (Foster City, CA, United States). Using an Agilent XDB-C18 reversed phase analytical column and optimized mobile phase gradients, 20 μL from each elution were chromatographed. Two Shimadzu 10ADvp pumps (Columbia, MD, United States) provided the pressure for gradient elution. Mobile phase A: 20% methanol, 80% water (v/v) and 1 mM ammonium acetate (Sigma, St. Louis, MO, United States). Mobile phase B: 100% methanol, 1 mM ammonium acetate. Every method run began with 0% mobile phase B, reached 100% mobile phase B flowing at 0.2 mL/min, and gradually returned to 0% mobile phase B.
This screening library will be referred to as the lipidome when discussing data from this study. HPLC/MS/MS data were analyzed using Analyst software (Applied Biosystems) ([Bradshaw et al., 2006]; [Tan et al., 2006]; [Stuart et al., 2013]; [Tortoriello et al., 2013]; [Raboune et al., 2014]; [Leishman et al., 2016a],[b], [2017], [2018]). Chromatograms (Supplementary Figure 3) were generated by determining the retention time of analytes from the analytical column with a [M-1] or [M+1] parent peak and a fragmentation peak corresponding to the programmed values. […]

[1] = adult hypothalamus, 3mg/kg CP 55,940, p .001
[2] = adult hypothalamus, 3mg/kg CP 55,940, p .002
[3] = adult hypothalamus, 3mg/kg CP 55,940, p .005
[4] = adult hypothalamus, 3mg/kg CP 55,940, p .020
[5] = adult hypothalamus, 3mg/kg CP 55,940, p .036
[6] = adult hypothalamus, 3mg/kg CP 55,940, p .060
[7] = adult hypothalamus, 3mg/kg CP 55,940, p .073
[8] = adult midbrain, 3mg/kg CP 55,940
[9] = adult midbrain, 3mg/kg CP 55,940, p .000
[10] = adult midbrain, 3mg/kg CP 55,940, p .003
[11] = adult midbrain, 3mg/kg CP 55,940, p .023

CCCCCCC(C)(C)c1ccc([C@@H]2C[C@H](O)CC[C@H]2CCCO)c(O)c1 [CP 55,940]
THC level, Mean (adult hypothalamus, 3 mg/kg CP 55,940): BDL | PGF2α Direction (relative to Veh) [1]: ↓ | PGF2α Magnitude (x Veh level) [1]: 0.79 | phosphoLEA Direction (relative to Veh) [2]: ↓ | phosphoLEA Magnitude (x Veh level) [2]: 0.74 | 6-ketoPGF1α Direction (relative to Veh) [3]: ↓ | 6-ketoPGF1α Magnitude (x Veh level) [3]: 0.61 | N-palmitoyl phenylalanine Direction (relative to Veh) [4]: ↑ | N-palmitoyl phenylalanine Magnitude (x Veh level) [4]: 1.86 | PGE2 Direction (relative to Veh) [5]: ↑ | PGE2 Magnitude (x Veh level) [5]: 1.18 | N-arachidonoyl taurine Direction (relative to Veh) [6]: ↑ | N-arachidonoyl taurine Magnitude (x Veh level) [6]: 1.24 | N-arachidonoyl GABA Direction (relative to Veh) [7]: ↓ | N-arachidonoyl GABA Magnitude (x Veh level) [7]: 0.83 | 2-arachidonoyl glycerol level, Mean [8]: 3.47E-09 | 2-linoleoyl glycerol level, Mean [8]: 3.28E-10 | 2-oleoyl glycerol level, Mean [8]: 4.34E-09 | 2-palmitoyl glycerol level, Mean [8]: 8.64E-11 | 6-ketoPGF1α level, Mean [8]: 3.28E-11 | 11-OH-THC level, Mean [8]: BDL | 11-nor-9-carboxyTHC level, Mean [8]: BDL | Arachidonic acid level, Mean [8]: 5.39E-10 | Cannabidiol level, Mean [8]: BDL | Linoleic acid level, Mean [8]: 2.55E-10 | N- stearoyl valine level, Mean [8]: 3.08E-14 | N-arachidonoyl GABA level, Mean [8]: 2.05E-11 | N-arachidonoyl alanine level, Mean [8]: 8.5E-13 | N-arachidonoyl dopamine level, Mean [8]: BDL | N-arachidonoyl ethanolamine level, Mean [8]: 1.42E-11 | N-arachidonoyl glycine level, Mean [8]: 7.94E-13 | N-arachidonoyl phenylalanine level, Mean [8]: 2.39E-13 | N-arachidonoyl proline level, Mean [8]: BDL | N-arachidonoyl serine level, Mean [8]: 4.34E-13 | N-arachidonoyl taurine level, Mean [8]: 5.5E-11 | N-arachidonoyl tryptophan level, Mean [8]: BDL | N-arachidonoyl tyrosine level, Mean [8]: 1.09E-12 | N-docosahexaenoyl GABA level, Mean [8]: 8.66E-12 | N-docosahexaenoyl ethanolamine level, Mean [8]: 3.34E-11 | N-docosahexaenoyl glycine level, Mean [8]: 1.02E-13 | N-docosahexaenoyl methionine level, Mean [8]: BDL | N-docosahexaenoyl phenylalanine level, Mean [8]: 1.11E-13 | N-docosahexaenoyl proline level, Mean [8]: BDL | N-docosahexaenoyl tryptophan level, Mean [8]: BDL | N-linoleoyl alanine level, Mean [8]: 4.8E-13 | N-linoleoyl ethanolamine level, Mean [8]: 1.5E-11 | N-linoleoyl glycine level, Mean [8]: 4.47E-14 | N-linoleoyl methionine level, Mean [8]: BDL | N-linoleoyl proline level, Mean [8]: BDL | N-linoleoyl serine level, Mean [8]: 2.09E-11 | N-linoleoyl tryptophan level, Mean [8]: BDL | N-linoleoyl tyrosine level, Mean [8]: BDL | N-nervonoyl valine level, Mean [8]: BDL | N-oleoyl GABA level, Mean [8]: 1.69E-11 | N-oleoyl alanine level, Mean [8]: 2.56E-12 | N-oleoyl dopamine level, Mean [8]: BDL | N-oleoyl ethanolamine level, Mean [8]: 3.41E-10 | N-oleoyl glycine level, Mean [8]: 4.95E-13 | N-oleoyl leucine level, Mean [8]: 1.1E-12 | N-oleoyl phenylalanine level, Mean [8]: 1.49E-12 | N-oleoyl proline level, Mean [8]: BDL | N-oleoyl serine level, Mean [8]: 1.28E-10 | N-oleoyl tryptophan level, Mean [8]: BDL | N-oleoyl tyrosine level, Mean [8]: 7.3E-13 | N-oleoyl valine level, Mean [8]: 2.38E-14 | N-palmitoyl GABA level, Mean [8]: 2.91E-11 | N-palmitoyl alanine level, Mean [8]: 1.61E-12 | N-palmitoyl ethanolamine level, Mean [8]: 6.9E-11 | N-palmitoyl glycine level, Mean [8]: 1.85E-12 | N-palmitoyl leucine level, Mean [8]: 2.19E-12 | N-palmitoyl methionine level, Mean [8]: 2.91E-12 | N-palmitoyl phenylalanine level, Mean [8]: 1.17E-12 | N-palmitoyl proline level, Mean [8]: BDL | N-palmitoyl tryptophan level, Mean [8]: BDL | N-palmitoyl tyrosine level, Mean [8]: 1.01E-12 | N-palmitoyl valine level, Mean [8]: 1.76E-13 | N-stearoyl GABA level, Mean [8]: 1.9E-11 | N-stearoyl alanine level, Mean [8]: 2.08E-12 | N-stearoyl ethanolamine level, Mean [8]: 1.35E-11 | N-stearoyl glycine level, Mean [8]: 2.96E-12 | N-stearoyl leucine level, Mean [8]: 1.09E-12 | N-stearoyl methionine level, Mean [8]: 4.14E-13 | N-stearoyl phenylalanine level, Mean [8]: 7.89E-13 | N-stearoyl proline level, Mean [8]: BDL | N-stearoyl serine level, Mean [8]: 1.92E-11 | N-stearoyl tryptophan level, Mean [8]: BDL | Oleic acid level, Mean [8]: 4.73E-10 | PGE2 level, Mean [8]: 2.39E-10 | PhosphoLEA level, Mean [8]: 2.38E-11 | THC level, Mean [8]: BDL | 2-arachidonoyl glycerol, Direction (relative to Veh) [9]: ↓ | 2-arachidonoyl glycerol, Magnitude (x Veh level) [9]: 0.80 | 2-oleoyl glycerol, Direction (relative to Veh) [9]: ↓ | 2-oleoyl glycerol, Magnitude (x Veh level) [9]: 0.74 | Arachidonic acid, Direction (relative to Veh) [9]: ↓ | Arachidonic acid, Magnitude (x Veh level) [9]: 0.78 | 2-linoleoyl glycerol Direction (relative to Veh) [10]: ↓ | 2-linoleoyl glycerol Magnitude (x Veh level) [10]: 0.77 | phosphoLEA Direction (relative to Veh) [10]: ↓ | phosphoLEA Magnitude (x Veh level) [10]: 0.70 | N-palmitoyl ethanolamine, Direction (relative to Veh) [11]: ↓ | N-palmitoyl ethanolamine, Magnitude (x Veh level) [11]: 0.82
